This is an account of results in PubChem BioAssay AID330 (DTP/NCI, 2004).

The subject of this assay is P388 leukemia ip, CD2F1 mice, survival T/C. Description: NCI In Vivo Anticancer Drug Screen. Data for tumor model P388 Leukemia (intraperitoneal) in CD2F1 (CDF1) mice. The settings on record: endpoint: median survival time, higher = longer survival. Put shortly: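 Mice carrying the transplanted tumor received test compound or vehicle. Survival was recorded in each group, and the value is the treated-group measurement divided by that of the vehicle-treated control group.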

Where [1] appears, read: dose: 50.0 mg/kg/injection, schedule: Q01DX005 (ip), vehicle: Klucel (hydroxypropylcellulose) (HPC).
[2] abbreviates: dose: 100.0 mg/kg/injection, schedule: Q01DX005 (ip), vehicle: Klucel (hydroxypropylcellulose) (HPC).
The mark [3] stands for this setting: dose: 200.0 mg/kg/injection, schedule: Q01DX005 (ip), vehicle: Klucel (hydroxypropylcellulose) (HPC).
[4] abbreviates: dose: 50.0 mg/kg/injection, schedule: Q01DX005 (ip), vehicle: saline with Tween-80.
Setting [5] is: dose: 100.0 mg/kg/injection, schedule: Q01DX005 (ip), vehicle: saline with Tween-80.
Where [6] appears, read: dose: 50.0 mg/kg/injection, schedule: Q01DX009 (ip), vehicle: Klucel (hydroxypropylcellulose) (HPC).
Setting [7] is: dose: 100.0 mg/kg/injection, schedule: Q01DX009 (ip), vehicle: Klucel (hydroxypropylcellulose) (HPC).
The mark [8] stands for this setting: dose: 25.0 mg/kg/injection, schedule: Q01DX005 (ip), vehicle: Klucel (hydroxypropylcellulose) (HPC).
[9] abbreviates: dose: 6.25 mg/kg/injection, schedule: Q01DX009 (ip), vehicle: saline.
Setting [10] is: dose: 12.5 mg/kg/injection, schedule: Q01DX009 (ip), vehicle: saline.
The mark [11] stands for this setting: dose: 25.0 mg/kg/injection, schedule: Q01DX009 (ip), vehicle: saline.
[12] abbreviates: dose: 50.0 mg/kg/injection, schedule: Q01DX009 (ip), vehicle: saline.
[13] abbreviates: dose: 200.0 mg/kg/injection, schedule: Q01DX009 (ip), vehicle: saline.
[14] abbreviates: dose: 60.0 mg/kg/injection, schedule: Q01DX005 (ip), vehicle: saline with Tween-80.
Setting [15] is: dose: 120.0 mg/kg/injection, schedule: Q01DX005 (ip), vehicle: saline with Tween-80.
The mark [16] stands for this setting: dose: 240.0 mg/kg/injection, schedule: Q01DX005 (ip), vehicle: saline with Tween-80.
[17] abbreviates: dose: 100.0 mg/kg/injection, schedule: Q01DX009 (ip), vehicle: saline.
The mark [18] stands for this setting: dose: 100.0 mg/kg/injection, schedule: Q01DX009 (ip), vehicle: saline with Tween-80.
[19] abbreviates: dose: 200.0 mg/kg/injection, schedule: Q01DX009 (ip), vehicle: saline with Tween-80.

Several values for one entry are separate records, joined by “and”; a condition that tells them apart may be missing. Equal entries are not always repeated. Inconclusive results and toxic doses are left out.

For the compound `COc1ccc2[nH]cc(CC(NC(C)=O)C(=O)O)c2c1` (configuration not stated), the T/C under setting [1] is 98 % of control, the T/C under setting [2] is 104 % of control and the T/C under setting [3] is 101 % of control.

With `OCC1(C(O)(C2CC2)C2(CO)CC2)CC1`, the T/C under setting [4] was 105 % of control; the T/C under setting [5] is 105 % of control; the T/C (dose: 200.0 mg/kg/injection, schedule: Q01DX005 (ip), vehicle: saline with Tween-80) was 100 % of control.

Turning to `Cc1ccc(N=Cc2cccs2)cc1`, the T/C reads like this: under setting [6], 115 % of control; under setting [7], 115 % of control.

Regarding `Cc1[nH]n(-c2cc(S(=O)(=O)O)ccc2Cl)c(=O)c1N=Nc1ccc(C(=O)Nc2ccc(S(=O)(=O)O)cc2)cc1`, the T/C under setting [1] was 99 % of control, the T/C under setting [2] was 92 % of control and the T/C under setting [3] is 99 % of control.

As to `COC(=O)C1=C(/C=C/C(C)=O)NC(C)=C(C(=O)OC(C)C)C1c1ccccc1Cl` (configuration not stated), the T/C was 105 % of control under setting [8]; 99 % of control and 108 % of control and 96 % of control under setting [1]; 102 % of control and 104 % of control and 113 % of control under setting [2]; 108 % of control and 116 % of control under setting [3].

In the case of `CC1(c2ccccc2)c2ccccc2N(c2ccccc2)C(=O)C1O` (configuration not stated), the T/C runs as follows: (dose: 100.0 mg/kg/injection, schedule: Q04DX003 (ip), vehicle: Klucel (hydroxypropylcellulose) (HPC)) 101 % of control and 109 % of control; (dose: 200.0 mg/kg/injection, schedule: Q04DX003 (ip), vehicle: Klucel (hydroxypropylcellulose) (HPC)) 100 % of control and 107 % of control; (dose: 400.0 mg/kg/injection, schedule: Q04DX003 (ip), vehicle: Klucel (hydroxypropylcellulose) (HPC)) 100 % of control and 109 % of control.

With `CCCCCCCOc1ccc(OCCCC[N+]2(CC)CCCCC2)cc1`, the T/C (dose: 1.56 mg/kg/injection, schedule: Q01DX009 (ip), vehicle: saline) is 103 % of control; the T/C (dose: 3.12 mg/kg/injection, schedule: Q01DX009 (ip), vehicle: saline) is 100 % of control; the T/C under setting [9] is 102 % of control.

Turning to `CC[N+](C)(CC)CCNC(=O)Nc1ccc(-c2ccc(NC(=O)NCC[N+](C)(CC)CC)c(OC)c2)cc1OC`, the T/C is, setting by setting: under setting [9], 98 % of control; under setting [10], 96 % of control.

Take `CCOC(=O)/C(C#N)=C\c1ccc(OCc2ccccc2)c(OCc2ccccc2)c1`: the T/C reads like this: (dose: 12.5 mg/kg/injection, schedule: Q01DX005 (ip), vehicle: distilled water + alcohol) 93 % of control; (dose: 25.0 mg/kg/injection, schedule: Q01DX005 (ip), vehicle: distilled water + alcohol) 87 % of control; (dose: 50.0 mg/kg/injection, schedule: Q01DX005 (ip), vehicle: distilled water + alcohol) 88 % of control; under setting [2], 89 % of control; under setting [3], 91 % of control.

As for `COC(=O)c1c(SC)c2sc3ccccc3c2oc1=O`, the T/C (dose: 6.25 mg/kg/injection, schedule: Q04DX002 (ip), vehicle: saline with Tween-80) was 100 % of control; the T/C (dose: 12.5 mg/kg/injection, schedule: Q04DX002 (ip), vehicle: saline with Tween-80) is 106 % of control; the T/C (dose: 25.0 mg/kg/injection, schedule: Q04DX002 (ip), vehicle: saline with Tween-80) is 99 % of control.

Take `CCOP(=O)(CC(=O)c1cc2ccccc2[nH]1)OCC`: the T/C under setting [10] is 100 % of control; the T/C under setting [11] was 92 % of control; the T/C under setting [12] is 106 % of control and 95 % of control; the T/C under setting [13] was 97 % of control.

Consider `CCn1c(-c2c(Cl)cc(O)cc2Cl)cc2c(Cl)cc(O)cc21`, for which the T/C runs as follows: (dose: 60.0 mg/kg/injection, schedule: Q01DX005 (ip), vehicle: Klucel (hydroxypropylcellulose) (HPC)) 87 % of control; (dose: 120.0 mg/kg/injection, schedule: Q01DX005 (ip), vehicle: Klucel (hydroxypropylcellulose) (HPC)) 92 % of control.

On to `COc1cc(C2SCC(=O)N2c2nnc(C(F)(F)F)s2)cc(OC)c1OC` (configuration not stated), for which the T/C is 98 % of control under setting [14] and 88 % of control under setting [15].

`Nc1ncc2[nH]cnc2n1`: the T/C by setting is: under setting [1], 102 % of control; under setting [2], 100 % of control; under setting [3], 103 % of control.

Consider `C#CO[C@@H]1C[C@H](C)CCC1C(C)C` (some centres not stated), for which the T/C runs as follows: under setting [14], 100 % of control; under setting [15], 106 % of control.

For `CCOC(=O)c1csc(Br)n1`, the T/C under setting [14] was 104 % of control, the T/C under setting [15] is 100 % of control and the T/C under setting [16] is 100 % of control.

In the case of `Cc1ccc2c(c1)CN(C)c1ccc(C)cc1CN2C`, the T/C runs as follows: under setting [14], 98 % of control; under setting [15], 100 % of control; under setting [16], 98 % of control.

On to `CCOP(=O)(OCC)Oc1c(OC)cc(C2OCCO2)cc1OC`, for which the T/C reads like this: under setting [12], 103 % of control; under setting [17], 103 % of control; under setting [13], 117 % of control.

In the case of `CCCCCC(O)/C=C/[C@H]1C(O)CC2OC(CSCCC(=O)O)C[C@@H]21` (some centres not stated), the T/C (dose: 100.0 mg/kg/injection, schedule: Q04DX002 (ip), vehicle: saline with Tween-80) was 103 % of control and the T/C (dose: 200.0 mg/kg/injection, schedule: Q04DX002 (ip), vehicle: saline with Tween-80) is 96 % of control.

Regarding `O=C(O)c1c(Cl)c(Cl)c(Cl)c(Cl)c1Cl`, the T/C was 95 % of control under setting [18]; 100 % of control under setting [19]; 113 % of control (dose: 400.0 mg/kg/injection, schedule: Q01DX009 (ip), vehicle: saline with Tween-80).

Regarding `N#Cc1ccc[n+](Cc2c(Cl)cccc2Cl)c1`, the T/C by setting is: under setting [9], 121 % of control; under setting [10], 108 % of control and 112 % of control; under setting [11], 101 % of control and 115 % of control; under setting [12], 110 % of control and 97 % of control.

Regarding `CC(=O)C[n+]1ccccc1-c1ccccc1C`, the T/C under setting [4] is 103 % of control.

For `Nc1ccc2c(=O)[nH]cnc2c1`, the T/C is, setting by setting: (dose: 12.0 mg/kg/injection, schedule: Q01DX005 (ip), vehicle: Klucel (hydroxypropylcellulose) (HPC)) 101 % of control; under setting [8], 108 % of control; under setting [1], 106 % of control and 116 % of control; under setting [2], 104 % of control.

Take `Cn1cnc([N+](=O)[O-])c1S(N)(=O)=O`: the T/C was 88 % of control under setting [18] and 123 % of control under setting [19].

In the case of `O=C(/C=C\c1ccc([N+](=O)[O-])cc1)c1ccccc(=O)c1O`, the T/C was 95 % of control (dose: 12.5 mg/kg/injection, schedule: Q01DX001 (ip), vehicle: Klucel (hydroxypropylcellulose) (HPC)); 100 % of control (dose: 25.0 mg/kg/injection, schedule: Q01DX001 (ip), vehicle: Klucel (hydroxypropylcellulose) (HPC)); 99 % of control (dose: 50.0 mg/kg/injection, schedule: Q01DX001 (ip), vehicle: Klucel (hydroxypropylcellulose) (HPC)); 98 % of control (dose: 100.0 mg/kg/injection, schedule: Q01DX001 (ip), vehicle: Klucel (hydroxypropylcellulose) (HPC)).

For the compound `CCC1OC(=O)C1[Si](C)(C)C` (configuration not stated), the T/C was 99 % of control (dose: 100.0 mg/kg/injection, schedule: Q01DX001 (ip), vehicle: saline); 103 % of control (dose: 200.0 mg/kg/injection, schedule: Q01DX001 (ip), vehicle: saline); 103 % of control (dose: 400.0 mg/kg/injection, schedule: Q01DX001 (ip), vehicle: saline).

As to `NC(=O)C1CNCC(C(N)=O)C1` (configuration not stated), the T/C was 100 % of control and 98 % of control under setting [12]; 98 % of control under setting [17]; 99 % of control under setting [13].

Consider `O=c1c2ccccc2nc(-c2ccccc2)n1-c1cc(C(F)(F)F)cc(C(F)(F)F)c1`, for which the T/C is, setting by setting: (dose: 6.25 mg/kg/injection, schedule: Q01DX009 (ip), vehicle: saline with Tween-80) 99 % of control; (dose: 12.5 mg/kg/injection, schedule: Q01DX009 (ip), vehicle: saline with Tween-80) 90 % of control.

On to `O=C(Nn1nnnc1-c1ccccc1)c1ccccc1`, for which the T/C under setting [8] was 97 % of control, the T/C under setting [1] was 92 % of control and the T/C under setting [2] was 101 % of control.

On to `Cn1c(CC(O)c2nc3ccccc3n2C)nc2ccccc21` (configuration not stated), for which the T/C runs as follows: under setting [6], 98 % of control; under setting [12], 114 % of control; under setting [7], 105 % of control; under setting [17], 112 % of control; (dose: 200.0 mg/kg/injection, schedule: Q01DX009 (ip), vehicle: Klucel (hydroxypropylcellulose) (HPC)) 98 % of control; under setting [13], 107 % of control.

Take `CC(C)(C)NC1=C([N+](=O)[O-])CCCC1`: the T/C reads like this: under setting [4], 93 % of control; under setting [5], 93 % of control.
